Experimental data from article PMC9865752, “Design and Synthesis of (Z)-2-(Benzylamino)-5-benzylidenethiazol-4(5H)-one Derivatives as Tyrosinase Inhibitors and Their Anti-Melanogenic and Antioxidant Effects” (Molecules, 2023).

Legend:
mushroom tyrosinase = biological target: T1, mushroom tyrosinase (Agaricus bisporus, UniProt C7FF04); test: Kinetic studies of mushroom tyrosinase inhibition (Lineweaver–Burk and Dixon plots); format: biochemical; conditions: substrate L-dopa
T1 construct: purchased
Description: Kinetic studies using Lineweaver–Burk plots were performed using four different concentrations (0, 0.5, 1, and 2 µM) of the test derivatives (7 and 8) and five different concentrations (0.5, 1, 2, 4, and 8 mM for 7, and 1, 2, 4, 8, and 16 mM for 8) of L-dopa.
Lineweaver–Burk plots for 7 and 8 were transformed into the corresponding Dixon plots to determine their inhibition constant (Ki) values for the mushroom tyrosinase–inhibitor complex. […] The Ki values for the mushroom tyrosinase–inhibitor complex were obtained from the x-axis value of each convergence point.
Lineweaver–Burk plots of derivatives 7 and 8 were obtained in the presence of L-dopa as the substrate. Briefly, 20 µL aliquots of mushroom tyrosinase aqueous solution (200 units/mL) were added to each well of a 96-well plate containing 10 µL BABT derivative (7 or 8) DMSO solution (final concentrations: 0, 0.5, 1, and 2 µM) and 170 µL of an aqueous solution containing L-dopa (final concentrations: 1.0, 2.0, 4.0, 8.0, and 16.0 mM) and sodium phosphate buffer (pH 6.5, 17.2 mM). The initial rate of dopachrome formation was determined by examining the changes in absorbance at a wavelength of 475 nm (ΔOD475/min) using a microplate reader (VersaMax; Molecular Devices).

[1] = biological target: T2, B16F10 cellular tyrosinase (Mus musculus, UniProt P11344); test: Cellular anti-tyrosinase activity assay; format: cell-based, murine; conditions: α-MSH plus IBMX stimulated B16F10 cells, 72 h
T2 construct: host or cells: B16F10 murine melanoma cells
T2 sequence (P11344 19-533): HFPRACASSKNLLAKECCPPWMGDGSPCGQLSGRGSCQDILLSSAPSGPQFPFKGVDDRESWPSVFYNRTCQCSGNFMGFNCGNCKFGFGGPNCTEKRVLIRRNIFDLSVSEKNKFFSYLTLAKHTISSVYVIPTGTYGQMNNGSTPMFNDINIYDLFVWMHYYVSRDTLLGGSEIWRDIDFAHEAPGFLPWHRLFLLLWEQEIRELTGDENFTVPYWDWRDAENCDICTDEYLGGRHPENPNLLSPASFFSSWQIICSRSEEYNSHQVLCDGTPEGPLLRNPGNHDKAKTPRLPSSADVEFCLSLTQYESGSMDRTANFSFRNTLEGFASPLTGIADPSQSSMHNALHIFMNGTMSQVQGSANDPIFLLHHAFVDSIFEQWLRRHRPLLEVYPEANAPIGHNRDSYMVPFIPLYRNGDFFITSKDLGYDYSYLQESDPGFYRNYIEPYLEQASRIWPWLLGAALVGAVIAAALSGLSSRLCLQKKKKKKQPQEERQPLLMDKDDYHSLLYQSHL
Description: Briefly, B16F10 cells were seeded at 1 × 10^5 cells/well in a 6-well plate and allowed to adhere to well bottoms for 24 h. […] Then, a stimulator (0.5 µM α-MSH plus 200 µM IBMX) was applied to increase the cellular tyrosinase activity, and the cells were cultured for 72 h under the conditions used for cell cultures. Cultured cells were washed twice with PBS and exposed to an aliquot (100 µL) of the lysis buffer solution containing 20% Triton X-100 (5 µL), 50 mM phosphate buffer (pH 6.5, 90 µL), and 2 mM phenylmethylsulfonyl fluoride (5 µL) to lyse the cultured cells for 30 min at −80 °C. After defrosting, the cell lysates were transferred to microcentrifuge tubes and centrifuged for 30 min at 4 °C and 12,000 rpm, and the supernatants (80 µL) in each well were mixed with 20 µL L-dopa (2 mg/mL) and incubated at 37 °C for 10 min. The absorbance of dopachrome was measured at 475 nm using a microplate reader (VersaMax; Molecular Devices).

[2] = DPPH radical scavenging assay; conditions: test samples 500 µM; DPPH 0.18 mM; 30 min in the dark
Description: DPPH is a light-sensitive compound containing free radicals. The DPPH assay is one of the most common methods for evaluating the antioxidant activity of a compound. The effects of BABT derivatives on DPPH radical scavenging activities were evaluated using L-ascorbic acid as a positive reference control. DPPH radical scavenging activities were measured after leaving the mixed samples (test samples of 500 µM plus DPPH solution of 0.18 mM) in the dark for 30 min. To determine the radical scavenging activities, the absorbance of the mixed samples was measured at 517 nm.
According to previously described methods, with minor modifications, the DPPH radical scavenging activities of BABT derivatives 1–14 were measured. A DPPH (0.2 mM) and methanol solution (180 µL) was mixed with 20 µL of a DMSO solution containing 5 mM BABT derivative, or with 20 µL of an aqueous solution of 5 mM L-ascorbic acid, in each well of a 96-well plate and kept at ambient temperature in the dark for 30 min. The optical density of each well was measured at 517 nm using a microplate reader (VersaMax; Molecular Devices). L-Ascorbic acid was used as a positive reference control, and the DPPH radical scavenging abilities of BABT derivatives were compared with those of L-ascorbic acid. All experiments were performed independently, thrice.

[3] = ABTS radical scavenging assay; conditions: test samples 100 µM; 2 min in the dark
Description: An antioxidant assay using ABTS is also commonly used to assess the antioxidant activities of compounds. Donation of one electron from ABTS to potassium persulfate generates the ABTS radical cation. An ABTS radical scavenging activity assay was performed using 100 µM of BABT derivatives or Trolox (a positive reference control) by mixing test samples with ABTS radical cations obtained from a reaction of potassium persulfate and ABTS. ABTS radical scavenging activity was assessed by measuring the optical density at 734 nm after leaving the test sample–ABTS radical cation mixture in the dark for 2 min.
According to a previously described method, with minor modifications, the ABTS radical scavenging activities of BABT derivatives 1–14 were assessed. Briefly, an ABTS radical solution was prepared by mixing 10 mL of aqueous ABTS solution (7 mM) with 10 mL of potassium persulfate aqueous solution (2.45 mM), and the mixture was kept for 11–15 h in the dark at room temperature until the absorbance remained constant. Prior to the antioxidant assay experiments, the ABTS radical solution was diluted with water to adjust the absorbance at 734 nm to 0.70 ± 0.02. A 10 µL aliquot of BABT derivatives or Trolox at a concentration of 1000 µM was added to 90 µL of ABTS+ free radical solution in each well of a 96-well plate and incubated for 2 min in the dark at ambient temperature. The absorbance of each well was measured at 734 nm using a microplate reader (VersaMax; Molecular Devices). The ABTS+ radical scavenging activities of BABT derivatives were compared to those of Trolox. All experiments were carried out independently, thrice.

T1 sequence (C7FF04 1-392): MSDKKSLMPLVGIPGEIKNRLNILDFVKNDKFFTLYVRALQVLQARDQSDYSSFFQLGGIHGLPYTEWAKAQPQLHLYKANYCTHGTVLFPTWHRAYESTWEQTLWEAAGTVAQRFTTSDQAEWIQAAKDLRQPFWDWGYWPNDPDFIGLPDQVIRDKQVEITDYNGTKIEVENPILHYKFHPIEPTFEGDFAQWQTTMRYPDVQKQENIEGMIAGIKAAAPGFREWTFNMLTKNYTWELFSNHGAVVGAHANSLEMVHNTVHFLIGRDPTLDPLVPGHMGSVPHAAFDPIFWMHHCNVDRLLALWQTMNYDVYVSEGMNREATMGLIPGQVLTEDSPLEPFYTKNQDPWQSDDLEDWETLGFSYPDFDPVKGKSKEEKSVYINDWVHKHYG

SMILES: O=C1N=C(NCc2ccccc2)S/C1=C\c1ccc(O)cc1O [Compound 8, (Z)-2-(benzylamino)-5-(2,4-dihydroxybenzylidene)thiazol-4(5H)-one]
- Ki (mushroom tyrosinase; Dixon plots, read-out: inhibition constant (Ki) for the mushroom tyrosinase–inhibitor complex): 810 nM
- mode of inhibition (mushroom tyrosinase; Lineweaver–Burk plots): competitive inhibitors
- inhibition of cellular tyrosinase activity (in words) ([1]; 5 µM): more than that by kojic acid at 20 µM
- cellular tyrosinase activity compared to untreated control ([1]; 20 µM): 1.7 fold
- DPPH radical scavenging activity, % inhibition [2]: 76%
- ABTS radical scavenging activity, % inhibition [3]: 96%
